{"source": "patent US8309790B2", "about": "“Animal models for demyelination disorders” (University of Chicago, priority 2005, dated 2012)", "key": {"[1]": {"test_system": "corpus callosum of GFAP/tTA; TRE/IFN-γ; PERK+/− mice", "experiment": "Remyelination after cuprizone in double transgenic mice on PERK+/+ or PERK+/− background", "assay_type": "in vivo", "conditions": "for remyelinated axons: 9 weeks", "from_the_text": "The involvement of the ER stress response in the reduction caused by IFN-γ to remyelinate lesions was examined in transgenic mice that were generated to be heterozygous for a loss of function mutation in pancreatic ER kinase (PERK) (Harding, et al., (2001) Mol Cell 7:1153-1163), and to be temporally regulated for expressing INF-γ in the CNS. TRE/IFN-γ mice were first crossed with PERK+/− mice (Harding, et al. (2001) Mol. Cell 7: 1153-1163) on the C57BL/6 background to generate mice the carry the PERK mutation, and the resulting progeny were crossed to GFAP/tTA mice to obtain transgenic mice that were heterozygous for the PERK mutation. The effect of PERK on remyelination in the presence or absence of INF-γ was evaluated as evaluated as a function of the level of myelination of oligodendrocytes in remyelinating lesions and the number of oligodendrocytes present in the remyelinating lesion.\nThe extent of remyelination was assessed as described in the previous examples in the corpus callosum of PERK+/+ and PERK+/− mice that were made to express INF-γ (DOX− PERK+/+ and DOX− PERK+/−), and in mice in which the expression of INF-γ was repressed (DOX+ PERK+/+ and DOX+ PERK+/−). Remyelination was determined by electron microscopy, and was related to the number of CC1 positive oligodendrocytes and the level of caspase-3 expression in the corpus callosum of all animals. The level of caspase-3 was determined by immunohistochemical methods using anti capsase antibody (active-casoase-3 antibody, 1:50; Cel Signaling Technology) and according to the method described in Example 1. Demyelination was induced in six-week-old GFAP/tTA; TRE/IFN-γ double transgenic mice on a PERK+/− background that had been maintained on doxycycline, by simultaneously treating the mice with 0.2% cuprizone and releasing them from doxycycline (DOX− PERK+/−). Remyelination was allowed to occur by withdrawing cuprizone at week 6."}, "[2]": {"test_system": "transgenic littermates overexpressing IFN-γ and/or SOCS1", "experiment": "IFN-γ-overexpressing mice crossed to PLP/SOCS1 mice, clinical and histological evaluation at postnatal day 21", "assay_type": "in vivo", "conditions": "for oligodendrocyte density: corpus callosum, postnatal day 21; for G ratio (axon diameter/fiber diameter ratio): hypomyelination defined as G ratio>0.8", "from_the_text": "The transgenic mice MBP/IFN-γ and GFAP/tTA×TRE/IFN-γ (lines 184/110 and 184/67) that overexpress IFN-γ in the CNS have been described elsewhere (Corbin et al., 1996; Gao et al., 2000; Lin et al., 2004, 2005). Briefly, MBP/IFN-γ mice are transgenic animals in which IFN-γ expression is driven by the myelin basic protein (MBP) transcriptional control region (Gao et al., 2000). GFAP/tTA×TRE/IFN-γ are double-transgenic mice obtained by mating single-transgenic GFAP/tTA to single-transgenic TRE/IFN-γ (lines 110 and 67) mice. The two TRE/IFN-γ mouse lines, line 110 and line 67, used in the experiments produce different amounts of IFN-γ when crossed to GFA/tTA mice (184/110 and 184/67) (Lin e al., 2004, 2005). GFAP/tTA×TRE/IFN-γ is a tetracycline-off-inducible system in which the glial fibrilary acidic protein (GFAP) transcriptional control region drives the expression of tTA, which in turn, binds to the TRE (tet responsive element) and initiates the expression of IFN-γ. Administration of doxycycline suppresses tTA DNA binding and IFN-γ expression, and doxycycline removal allows for temporally-controlled induction of IFN-γ expression (Gao et al., 1999).\nIFN-γ-overexpressing mice were crossed to the PLP/SOCS1 mice in double-transgenic, (MBP/IFN-γ×PLP/SOCS1) and triple-transgenic (GFAP/tTA×TRE/IFN-γ×PLP/SOCS1) mating systems. MBP/IFN-γ×PLP/SOCS1 (172×PLP/SOCS1) mating was performed according to a standard mating protocol. The GFAP/tTA×TRE/IFN-γ×PLP/SOCS1 matings were performed in a 2-step mating process: GFAP/tTA mice were initially crossed to PLP/SOCS1 mice, and double-positive (184×PLP/SOCS1) offspring were then crossed to the TRE/IFN-γ lines 110 and 67, separately. This second mating step was performed according to the previously described “tet-off” protocol. Doxycycline 0.05 mg/ml (Sigma-Aldich) was added to the water of impregnated female mice until embryonic day 14, after which the animals were switched back to normal water, thereby allowing initiation of IFN-γ transcription, which peaks during the postnatal period (Lin et al., 2005).\nThe litters of the mating systems (F1 generation) were examined daily and sacrificed at postnatal day 21. Clinical evaluation included behavioral observation and challenged ladder walking to elicit tremor. Histological examination included quantitation of the number and density of oligodendrocytes and examination of the myelination patterns. Brain tissue was simultaneously obtained from each animal at the time of sacrifice to verify and measure the expression of IFN-γ and Flag-SOCS1 (see below). The clinical and histological findings were subsequently stratified according to genotype. All animal procedures were conducted in compliance with the National Institutes of Health Guide for Care and Use of Laboratory Animals and were approved by the Institutional Animal Care and Use Committee at The University of Chicago.\nOligodendrocyte cell density was assessed digitally using Axiovision software, at postnatal day 21, as previously described (Lin et al., 2005). The brains were sectioned sagittally through the corpus callosum dividing the brain in two symmetrical halves. Ten frozen sections from each half were prepared at 7 μm thickness, and numbered in the sequence of their preparation. The brains of three animals per study group were prepared in this fashion. Following the CC1 immunostaining the corresponding area of corpus callosum of each section was digitally selected and the corresponding total area obtained. CC1 cell counting was performed manually within the selected areas of each section, and the number of CC1 positive cells per square area (mm^2) calculated. The results were presented as mean±SD of CC1 (+) cells/mm^2 with n=3 animals per study group. […]"}}, "data": [{"substance": "interferon-γ [IFN-γ]", "values": [{"measurement": "remyelinated axons", "setting": "[1]; DOX− PERK+/+ mice", "result": "31.1%±7.6%"}, {"measurement": "number of CC1 positive oligodendrocytes", "setting": "[1]; DOX− PERK+/+ mice, corpus callosum, week 9", "result": "123.2±27.5 /0.04 mm^2"}, {"measurement": "remyelinated axons", "setting": "[1]; DOX− PERK+/− mice, 3 weeks after cuprizone removed", "result": "15.6%±7.6%"}, {"measurement": "CC1 positive oligodendrocytes in the corpus callosum", "setting": "[1]; DOX− PERK+/− mice, week 9", "result": "only a few oligodendrocytes were detected"}, {"measurement": "number of oligodendrocytes positive for caspase-3, DOX− PERK+/− relative to DOX− PERK+/+", "setting": "[1]; week 9", "result": 2.3, "unit": "times"}, {"measurement": "Incidence of tremor", "setting": "[2]; 172 × PLP/SOCS1 mating system, ten mice per group", "result": 0, "unit": "%"}, {"measurement": "oligodendrocytes lost", "setting": "[2]; 184/67 × PLP/SOCS1 system", "result": "approximately 40%"}, {"measurement": "percentage of unmyelinated axons", "setting": "[2]; 184/67 × PLP/SOCS1 system", "result": "57%±7"}, {"measurement": "oligodendrocyte density", "setting": "[2]; 184/67 × PLP/SOCS1 system", "result": "79±9 CC1 (+) cells/mm^2"}, {"measurement": "G ratio (axon diameter/fiber diameter ratio)", "setting": "[2]; 184/67 × PLP/SOCS1 system", "result": "0.95±0.04"}, {"measurement": "oligodendrocytes lost", "setting": "[2]; 184/110 × PLP/SOCS1 system", "result": "approximately 20%"}, {"measurement": "percentage of unmyelinated axons", "setting": "[2]; 184/110 × PLP/SOCS1 system", "result": "41%±6"}, {"measurement": "oligodendrocyte density", "setting": "[2]; 184/110 × PLP/SOCS1 system", "result": "115±8 CC1 (+) cells/mm^2"}, {"measurement": "G ratio (axon diameter/fiber diameter ratio)", "setting": "[2]; 184/110 × PLP/SOCS1 system", "result": "0.89±0.02"}]}]}
